Assay results as given in US10111854B2, “Synthesis and use of amine-containing flavonoids as potent anti-leishmanial agents” (The Hong Kong Polytechnic University, priority 2014, dated 2018).

Tests used:
L. amazonensis = conditions: cutaneous leishmaniasis murine model; cited from earlier work
[1] = Pharmacokinetics study of FM09, FM09h and FM05b, iv and oral; format: in vivo, Balb/c mice; conditions: 50 mg/kg oral
Procedure: Animals were sacrificed at the indicated time point and plasma level of the corresponding flavonoids were determined using LC-MSMS. IC50 of corresponding flavonoids are indicated. Bioavailability (F) was calculated by dividing the dose-adjusted area under curve (AUC) of that of orally-fed over intravenously administered animals.

[2] = tested on: L. major FV1 promastigotes; assay: Anti-promastigote activity (MTS assay), L. major FV1; format: cell-based; conditions: Leishmania major, 72 hours
How it was run: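 Promastigotes (1×10^5 per well) in Schneider's medium pH 6.9 with 10% FBS, exposed to serial compound concentrations for 72 h at 27 °C. Viability by MTS/PMS reduction over 4 h, OD 490 nm; IC50 derived.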

Row | Clearance from plasma after oral feeding [1] | bioavailability ([1]; Balb/c, mouse, plasma, 10 mg/kg iv, dose-adjusted AUC oral over iv, read-out: Bioavailability (F)) | IC50 [2] | SMILES | Foot pad lesion size (L. amazonensis)
1 | – | – | – | O=c1cc(-c2ccc(OCCOCCN(CCOCCOc3ccc(-c4cc(=O)c5ccccc5o4)cc3)Cc3ccncc3)cc2)oc2ccccc12 [compound 39] | effective in reducing foot pad lesion size
2 | rapidly cleared | 14% | 800 ± 100 nM | O=c1cc(-c2ccc(OCCOCCN(Cc3ccccn3)Cc3ccccn3)cc2)oc2ccccc12 [FM09, 2-(4-(2-(2-(bis(pyridin-2-ylmethyl)amino)ethoxy)ethoxy)phenyl)-4H-chromen-4-one] | –
